Assay results reported in ChEMBL document CHEMBL3603734, “Design and biological evaluation of novel quinolone-based metronidazole derivatives as potent Cu(2+) mediated DNA-targeting antibacterial agents” (Bioorg Med Chem Lett, 2015).
Converted amounts (≈) assume the structure as drawn.

Assays:
Candida albicans = experiment: Antifungal activity against Candida albicans ATCC 10231 after 24 hrs by microbroth dilution method; type: functional; conditions: ATCC 10231, 24 h
Pseudomonas aeruginosa = experiment: Antibacterial activity against Pseudomonas aeruginosa ATCC 27853 after 24 hrs by microbroth dilution method; type: functional; conditions: ATCC 27853, 24 h
Staphylococcus aureus [1] = experiment: Antibacterial activity against methicillin-resistant Staphylococcus aureus N315 after 24 hrs by microbroth dilution method; type: functional; conditions: N315, 24 h
Aspergillus flavus = experiment: Antifungal activity against Aspergillus flavus ATCC 204304 after 24 hrs by microbroth dilution method; type: functional; conditions: ATCC 204304, 24 h
Escherichia coli = experiment: Antibacterial activity against Escherichia coli JM109 after 24 hrs by microbroth dilution method; type: functional; conditions: JM109, 24 h
Salmonella enterica = experiment: Antibacterial activity against Salmonella enterica ATCC 14028 after 24 hrs by microbroth dilution method; type: functional; conditions: ATCC 14028, 24 h
Micrococcus luteus = experiment: Antibacterial activity against Micrococcus luteus ATCC 4698 after 24 hrs by microbroth dilution method; type: functional; conditions: NCTC 2665, 24 h
Bacillus spizizenii = experiment: Antibacterial activity against Bacillus subtilis ATCC 6633 after 24 hrs by microbroth dilution method; type: functional; conditions: ATCC 6633, 24 h
Pichia norvegensis = experiment: Antifungal activity against Candida mycoderma ATCC 9888 after 24 hrs by microbroth dilution method; type: functional; conditions: ATCC 9888, 24 h
Cyberlindnera jadinii = experiment: Antifungal activity against Candida utilis ATCC 9950 after 24 hrs by microbroth dilution method; type: functional; conditions: Williopsis jadinii, ATCC 9950, 24 h
Saccharomyces cerevisiae = experiment: Antifungal activity against Saccharomyces cerevisiae ATCC 9763 after 24 hrs by microbroth dilution method; type: functional; conditions: ATCC 9763, 24 h
[2] = Ionization constant, pKa of the compound by UV spectroscopic analysis; type: physicochemical
Staphylococcus aureus [3] = experiment: Antibacterial activity against Staphylococcus aureus ATCC 25923 after 24 hrs by microbroth dilution method; type: functional; conditions: ATCC 25923, 24 h
Bacillus = experiment: Antibacterial activity against Bacillus proteus ATCC 13315 after 24 hrs by microbroth dilution method; type: functional; conditions: ATCC 13315, 24 h

Row | Structure (SMILES) | MIC (Candida albicans) [µg/mL] | MIC (Pseudomonas aeruginosa) [µg/mL] | MIC (Staphylococcus aureus [1]) [µg/mL] | MIC (Aspergillus flavus) [µg/mL] | MIC (Escherichia coli) [µg/mL] | MIC (Salmonella enterica) [µg/mL] | MIC (Micrococcus luteus) [µg/mL] | MIC (Bacillus spizizenii) [µg/mL] | MIC (Pichia norvegensis) [µg/mL] | MIC (Cyberlindnera jadinii) [µg/mL] | MIC (Saccharomyces cerevisiae) [µg/mL] | pKa [2] | MIC (Staphylococcus aureus [3]) [µg/mL] | MIC (Bacillus) [µg/mL]
1 | Cc1nc(N2CCCC2)c([N+](=O)[O-])n1CC(O)CN1CCN(c2cc3c(cc2F)c(=O)c(C(=O)O)cn3C2CC2)CC1 (stereo not drawn) | 64 (≈ 110 µM) | 2 (≈ 3.43 µM) | 16 (≈ 27.4 µM) | 32 (≈ 54.8 µM) | 64 (≈ 110 µM) | 32 (≈ 54.8 µM) | 128 (≈ 219 µM) | 16 (≈ 27.4 µM) | 32 (≈ 54.8 µM) | 16 (≈ 27.4 µM) | 32 (≈ 54.8 µM) | 6.72 | 64 (≈ 110 µM) | 32 (≈ 54.8 µM)
2 | Cc1ncc([N+](=O)[O-])n1CC(O)CN1CCN(c2cc3c(cc2F)c(=O)c(C(=O)O)cn3C2CC2)CC1 (stereo not drawn) | 128 (≈ 249 µM) | 0.5 (≈ 0.972 µM) | 2 (≈ 3.89 µM) | 16 (≈ 31.1 µM) | 16 (≈ 31.1 µM) | 4 (≈ 7.77 µM) | 8 (≈ 15.5 µM) | 4 (≈ 7.77 µM) | 64 (≈ 124 µM) | 32 (≈ 62.2 µM) | 32 (≈ 62.2 µM) | 6.67 | 16 (≈ 31.1 µM) | 4 (≈ 7.77 µM)
3 | Cc1nc(N2CCCCC2)c([N+](=O)[O-])n1CC(O)CNC1CCN(c2c(F)cc3c(=O)c(C(=O)O)cn(C4CC4)c3c2Cl)C1 (stereo not drawn) | 4 (≈ 6.33 µM) | 1 (≈ 1.58 µM) | 2 (≈ 3.16 µM) | 4 (≈ 6.33 µM) | 32 (≈ 50.6 µM) | 16 (≈ 25.3 µM) | 16 (≈ 25.3 µM) | 8 (≈ 12.7 µM) | 8 (≈ 12.7 µM) | 2 (≈ 3.16 µM) | 8 (≈ 12.7 µM) | 6.69 | 8 (≈ 12.7 µM) | 1 (≈ 1.58 µM)
4 | CCn1cc(C(=O)O)c(=O)c2cc(F)c(N3CCNCC3)cc21 [NORFLOXACIN] | – | 4 (≈ 12.5 µM) | 2 (≈ 6.26 µM) | – | 2 (≈ 6.26 µM) | 1 (≈ 3.13 µM) | 2 (≈ 6.26 µM) | 1 (≈ 3.13 µM) | – | – | – | – | 2 (≈ 6.26 µM) | 8 (≈ 25.1 µM)
5 | Cc1nc(N2CCOCC2)c([N+](=O)[O-])n1CC(O)CNC1CCN(c2c(F)cc3c(=O)c(C(=O)O)cn(C4CC4)c3c2Cl)C1 (stereo not drawn) | 2 (≈ 3.15 µM) | 0.25 (≈ 0.394 µM) | 0.25 (≈ 0.394 µM) | 1 (≈ 1.58 µM) | 0.5 (≈ 0.789 µM) | 2 (≈ 3.15 µM) | 2 (≈ 3.15 µM) | 4 (≈ 6.31 µM) | 16 (≈ 25.2 µM) | 0.5 (≈ 0.789 µM) | 1 (≈ 1.58 µM) | 6.57 | 0.5 (≈ 0.789 µM) | 0.25 (≈ 0.394 µM)
6 | Cc1nc(N2CCOCC2)c([N+](=O)[O-])n1CC(O)CN1CCN(c2cc3c(cc2F)c(=O)c(C(=O)O)cn3C2CC2)CC1 (stereo not drawn) | 32 (≈ 53.4 µM) | 0.5 (≈ 0.834 µM) | 4 (≈ 6.67 µM) | 8 (≈ 13.3 µM) | 16 (≈ 26.7 µM) | 8 (≈ 13.3 µM) | 16 (≈ 26.7 µM) | 8 (≈ 13.3 µM) | 128 (≈ 213 µM) | 4 (≈ 6.67 µM) | 16 (≈ 26.7 µM) | 6.77 | 16 (≈ 26.7 µM) | 4 (≈ 6.67 µM)
7 | CCn1cc(C(=O)O)c(=O)c2cc(F)c(N3CCN(CC(O)Cn4c(C)nc(N5CCCC5)c4[N+](=O)[O-])CC3)cc21 (stereo not drawn) | 32 (≈ 56 µM) | 4 (≈ 7 µM) | 32 (≈ 56 µM) | 16 (≈ 28 µM) | 128 (≈ 224 µM) | 64 (≈ 112 µM) | 64 (≈ 112 µM) | 64 (≈ 112 µM) | 16 (≈ 28 µM) | 32 (≈ 56 µM) | 8 (≈ 14 µM) | 6.68 | 64 (≈ 112 µM) | 64 (≈ 112 µM)
8 | Cc1nc(N2CCCC2)c([N+](=O)[O-])n1CC(O)CNC1CCN(c2c(F)cc3c(=O)c(C(=O)O)cn(C4CC4)c3c2Cl)C1 (stereo not drawn) | 2 (≈ 3.24 µM) | 0.5 (≈ 0.809 µM) | 1 (≈ 1.62 µM) | 2 (≈ 3.24 µM) | 8 (≈ 12.9 µM) | 8 (≈ 12.9 µM) | 4 (≈ 6.47 µM) | 1 (≈ 1.62 µM) | 4 (≈ 6.47 µM) | 1 (≈ 1.62 µM) | 4 (≈ 6.47 µM) | 6.54 | 1 (≈ 1.62 µM) | 0.5 (≈ 0.809 µM)
9 | CCn1cc(C(=O)O)c(=O)c2cc(F)c(N3CCN(CC(O)Cn4c(C)nc(N5CCOCC5)c4[N+](=O)[O-])CC3)cc21 (stereo not drawn) | 16 (≈ 27.2 µM) | 2 (≈ 3.4 µM) | 4 (≈ 6.81 µM) | 16 (≈ 27.2 µM) | 64 (≈ 109 µM) | 32 (≈ 54.5 µM) | 8 (≈ 13.6 µM) | 16 (≈ 27.2 µM) | 64 (≈ 109 µM) | 16 (≈ 27.2 µM) | 16 (≈ 27.2 µM) | 6.64 | 32 (≈ 54.5 µM) | 32 (≈ 54.5 µM)
10 | Cc1nc(N2CCCCC2)c([N+](=O)[O-])n1CC(O)CN1CCN(c2cc3c(cc2F)c(=O)c(C(=O)O)cn3C2CC2)CC1 (stereo not drawn) | 64 (≈ 107 µM) | 1 (≈ 1.67 µM) | 32 (≈ 53.5 µM) | 8 (≈ 13.4 µM) | 128 (≈ 214 µM) | 64 (≈ 107 µM) | 64 (≈ 107 µM) | 32 (≈ 53.5 µM) | 64 (≈ 107 µM) | 32 (≈ 53.5 µM) | 64 (≈ 107 µM) | 6.9 | 128 (≈ 214 µM) | 128 (≈ 214 µM)
11 | O=C(O)c1cn(C2CC2)c2c(Cl)c(NC3CCN(CC4CO4)C3)c(F)cc2c1=O (stereo not drawn) | 2 (≈ 4.74 µM) | 0.5 (≈ 1.19 µM) | 2 (≈ 4.74 µM) | 0.5 (≈ 1.19 µM) | 0.5 (≈ 1.19 µM) | 1 (≈ 2.37 µM) | 0.25 (≈ 0.593 µM) | 0.25 (≈ 0.593 µM) | 2 (≈ 4.74 µM) | 0.5 (≈ 1.19 µM) | 0.25 (≈ 0.593 µM) | – | 0.5 (≈ 1.19 µM) | 0.25 (≈ 0.593 µM)
12 | CCn1cc(C(=O)O)c(=O)c2cc(F)c(N3CCN(CC(O)Cn4c([N+](=O)[O-])cnc4C)CC3)cc21 (stereo not drawn) | 128 (≈ 255 µM) | 2 (≈ 3.98 µM) | 4 (≈ 7.96 µM) | 32 (≈ 63.7 µM) | 32 (≈ 63.7 µM) | 16 (≈ 31.8 µM) | 16 (≈ 31.8 µM) | 16 (≈ 31.8 µM) | 64 (≈ 127 µM) | 64 (≈ 127 µM) | 32 (≈ 63.7 µM) | 6.57 | 16 (≈ 31.8 µM) | 16 (≈ 31.8 µM)
13 | O=C(O)c1cn(C2CC2)c2cc(N3CCNCC3)c(F)cc2c1=O [CIPROFLOXACIN] | – | 1 (≈ 3.02 µM) | – | – | – | 1 (≈ 3.02 µM) | – | 1 (≈ 3.02 µM) | – | – | – | – | – | 1 (≈ 3.02 µM)
14 | CCn1cc(C(=O)O)c(=O)c2cc(F)c(N3CCN(CC4CO4)CC3)cc21 (stereo not drawn) | 4 (≈ 10.7 µM) | 16 (≈ 42.6 µM) | 2 (≈ 5.33 µM) | 1 (≈ 2.66 µM) | 2 (≈ 5.33 µM) | 16 (≈ 42.6 µM) | 8 (≈ 21.3 µM) | 64 (≈ 170 µM) | 1 (≈ 2.66 µM) | 8 (≈ 21.3 µM) | 1 (≈ 2.66 µM) | – | 8 (≈ 21.3 µM) | 4 (≈ 10.7 µM)
15 | CCn1cc(C(=O)O)c(=O)c2cc(F)c(N3CCN(CC(O)Cn4c(C)nc(N5CCCCC5)c4[N+](=O)[O-])CC3)cc21 (stereo not drawn) | 32 (≈ 54.6 µM) | 4 (≈ 6.83 µM) | 64 (≈ 109 µM) | 32 (≈ 54.6 µM) | 256 (≈ 437 µM) | 128 (≈ 219 µM) | 128 (≈ 219 µM) | 128 (≈ 219 µM) | 128 (≈ 219 µM) | 32 (≈ 54.6 µM) | 32 (≈ 54.6 µM) | 6.75 | 64 (≈ 109 µM) | 128 (≈ 219 µM)
16 | O=C(O)c1cn(C2CC2)c2cc(N3CCN(CC4CO4)CC3)c(F)cc2c1=O (stereo not drawn) | 2 (≈ 5.16 µM) | 2 (≈ 5.16 µM) | 1 (≈ 2.58 µM) | 1 (≈ 2.58 µM) | 1 (≈ 2.58 µM) | 2 (≈ 5.16 µM) | 2 (≈ 5.16 µM) | 8 (≈ 20.6 µM) | 1 (≈ 2.58 µM) | 2 (≈ 5.16 µM) | 1 (≈ 2.58 µM) | – | 4 (≈ 10.3 µM) | 4 (≈ 10.3 µM)
17 | OC(Cn1cncn1)(Cn1cncn1)c1ccc(F)cc1F [FLUCONAZOLE] | 1 (≈ 3.27 µM) | – | – | 256 (≈ 836 µM) | – | – | – | – | 4 (≈ 13.1 µM) | 8 (≈ 26.1 µM) | 16 (≈ 52.2 µM) | – | – | –
18 | NC1CCN(c2c(F)cc3c(=O)c(C(=O)O)cn(C4CC4)c3c2Cl)C1 (stereo not drawn) [CLINAFLOXACIN] | – | 1 (≈ 2.73 µM) | 1 (≈ 2.73 µM) | – | 1 (≈ 2.73 µM) | 1 (≈ 2.73 µM) | 0.5 (≈ 1.37 µM) | 0.5 (≈ 1.37 µM) | – | – | – | – | 0.5 (≈ 1.37 µM) | 0.5 (≈ 1.37 µM)
